Key:
[1] = target: T1, IDO1 in Hela cancer cells (Homo sapiens, UniProt P14902); experiment: IDO1 Cellular Assay (kynurenine production in IFN-γ stimulated Hela cancer cells); type: cell-based; settings: human IFN-γ 50 ng/mL, 48 hours incubation, kynurenine at 490 nm
T1 construct: endogenous in cells; host or cells: Hela cancer cells stimulated with human IFN-γ
Description: Hela cancer cells (5×10^3 per well) with 85 μL DMEM medium containing 10% FBS were seeded in a 96-well plate and incubated at 95% humidity and 5% CO2 at 37° C. for 24 hours. human IFN-γ (10 μL, 50 ng/mL final concentration) and 5 μL serial dilutions of the test compounds were added into each well. The test compounds were dissolved in DMSO, and successively diluted with pH7.5 buffer (with final DMSO concentration of 0.25%) resulting in final concentrations of the test compounds ranging from 0 to 25 μM (0, 2.5, 7.5, 25, 75, 250, 750, 2500, 7500, & 25000 nM). After 48 hours of incubation, 70 uL of the supernatant per well was transferred to a new 96 well plate. Trichloroacetic acid (6.1 N, 8 μL) was mixed into each well and incubated at 50° C. for 30 min to hydrolyze N-formylkynurenine produced by IDO to kynurenine. The reaction mixture was then centrifuged for 10 min at 2500 RPM to remove sediments. 50 μL of the supernatant per well was transferred to another 96 well plate and mixed with 50 uL of 2% (w/v) p-dimethylaminobenzaldehyde in acetic acid. The yellow color derived from kynurenine was measured at 490 nm using a microplate reader. Percent inhibition of the test compounds was determined by measuring the decrease in kynurenine as compared to the control of DMSO vehicle, which was calculated by formula of (WC-WT)/WC, where WC is the mean absorbance of the control well minus blank well; WT is the mean absorbance of the test well minus the blank well. Data was analyzed by GraphPad Prism 5 and the IC50 values were obtained by non-linear regression.
(§1) The IC50 values of for Compounds disclosed are listed in Table 2, A′: ≤0.5 μM; B′: >0.5 μM and ≤1 μM; C′: >1.0 μM and ≤5 uM; and D′: >5 μM.

[2] = target: T2, TDO2 in A172 cancer cells (Homo sapiens, UniProt P48775); experiment: TDO2 Cellular Assay (kynurenine production in A172 cancer cells); type: cell-based; settings: L-Trp 1 mM, 24 hours incubation, kynurenine at 490 nm
T2 construct: endogenous in cells; host or cells: A172 cancer cells
Description: A172 cancer cells (3×10^4 per well) in 85 μL DMEM medium containing 10% FBS were seeded in a 96-well plate and incubated at 95% humidity and 5% CO2 at 37° C. for overnight. On the next day, L-Trp solution (10 μL, 1 mM final concentration) and serial dilutions of the test compounds and DMEM medium resulting in a total final volume of 100 μL each well. The test compounds were dissolved in DMSO and successively diluted with pH7.5 butter (with final DMSO concentration of 0.25%) resulting in final concentrations of the test compounds ranging from 0 to 25 μM (0, 2.5, 7.5, 25, 75, 250, 750, 2500, 7500, & 25000 nM). After 24 hours of incubation, 70 uL of the supernatant per well was transferred to a new 96 well plate. 8 μL of trichloroacetic acid (6.1 N) was mixed into each well and incubated at 50° C. for 30 min to hydrolyze N-formylkynurenine to kynurenine. The reaction mixture was then centrifuged for 10 min at 2500 RPM to remove sediments. 50 μL of the supernatant per well was transferred to another 96 well plate and mixed with 50 μL of 2% (w/v) p-dimethylaminobenzaldehyde in acetic acid. The yellow color derived from kynurenine was measured at 490 nm using a microplate reader. Percent inhibition of the test compounds was determined by measuring the decrease in kynurenine as compared to the control of DMSO vehicle, which was calculated by formula of (WC−WT)/WC, where WC is the mean absorbance of the control well minus blank well; WT is the mean absorbance of the test well minus the blank well. Data was analyzed by GraphPad Prism 5 and the IC50 values were obtained by non-linear regression.
as §1

T1 sequence (P14902 whole entry): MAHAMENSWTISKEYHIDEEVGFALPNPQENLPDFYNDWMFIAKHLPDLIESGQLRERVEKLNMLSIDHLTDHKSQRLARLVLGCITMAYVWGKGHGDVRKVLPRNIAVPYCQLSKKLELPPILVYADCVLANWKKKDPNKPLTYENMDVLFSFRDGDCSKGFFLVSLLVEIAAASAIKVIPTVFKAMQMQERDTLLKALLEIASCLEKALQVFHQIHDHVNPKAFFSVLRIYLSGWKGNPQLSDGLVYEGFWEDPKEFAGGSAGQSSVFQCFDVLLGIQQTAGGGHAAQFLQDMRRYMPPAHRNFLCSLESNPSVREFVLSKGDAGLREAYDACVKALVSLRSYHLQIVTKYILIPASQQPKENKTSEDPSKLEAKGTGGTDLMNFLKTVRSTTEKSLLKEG
T2 sequence (P48775 whole entry): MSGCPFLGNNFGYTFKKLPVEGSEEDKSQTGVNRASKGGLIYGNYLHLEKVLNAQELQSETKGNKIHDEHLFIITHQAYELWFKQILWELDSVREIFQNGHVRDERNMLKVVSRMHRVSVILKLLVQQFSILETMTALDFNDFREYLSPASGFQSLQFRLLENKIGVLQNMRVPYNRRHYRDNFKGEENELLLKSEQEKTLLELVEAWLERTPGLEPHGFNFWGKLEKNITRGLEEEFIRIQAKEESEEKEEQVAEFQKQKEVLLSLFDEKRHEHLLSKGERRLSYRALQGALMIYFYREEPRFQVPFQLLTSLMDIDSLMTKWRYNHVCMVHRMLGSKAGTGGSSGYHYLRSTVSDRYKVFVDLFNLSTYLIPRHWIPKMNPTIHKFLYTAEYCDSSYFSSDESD

SMILES	IC50 [1] [nM]	IC50 [2] [nM]
O=S(=O)(N[C@H]1[C@@H]2C[C@@](O)(c3cc(Cl)cc4cn[nH]c34)C[C@@H]21)C1CC1 [Example 110, N-((1R,3r,5S,6r)-3-(5-chloro-1H-indazol-7-yl)-3-hydroxybicyclo[3.1.0]hexan-6-yl)cyclopropanesulfonamide]	1000 to 5000	1000 to 5000
CS(=O)(=O)N[C@H]1[C@@H]2C[C@@](O)(c3cc(Cl)cc4cn[nH]c34)C[C@@H]21 [Example 109, N-((1R,3r,5S,6r)-3-(5-chloro-1H-indazol-7-yl)-3-hydroxybicyclo[3.1.0]hexan-6-yl)methanesulfonamide]	1000 to 5000	500 to 1000
O=C(CC(F)(F)F)N[C@H]1[C@@H]2C[C@@](O)(c3cc(Cl)cc4[nH]ncc34)C[C@@H]21 [Example 138, N-((1R,3r,5S,6r)-3-(6-chloro-1H-indazol-4-yl)-3-hydroxybicyclo[3.1.0]hexan-6-yl)-3,3,3-trifluoropropanamide]	> 5000	≤ 500
O=C(N[C@H]1[C@@H]2C[C@@](O)(c3cc(Cl)cc4[nH]ncc34)C[C@@H]21)c1ccc(Cl)cc1 [Example 119, 4-chloro-N-((1R,3r,5S,6r)-3-(6-chloro-1H-indazol-4-yl)-3-hydroxybicyclo[3.1.0]hexan-6-yl)benzamide]	≤ 500	≤ 500
Cn1cc(C(=O)N[C@H]2[C@@H]3C[C@@](O)(c4cc(Cl)cc5[nH]ncc45)C[C@@H]32)cn1 [Example 155, N-((1R,3r,5S,6r)-3-(6-chloro-1H-indazol-4-yl)-3-hydroxybicyclo[3.1.0]hexan-6-yl)-1-methyl-1H-pyrazole-4-carboxamide]	1000 to 5000	≤ 500
CS(=O)(=O)N1C[C@@H]2C[C@@](O)(c3cc(Cl)cn4cncc34)C[C@@H]2C1 [Example 52, (3aR,5r,6aS)-5-(6-chloroimidazo[1,5-a]pyridin-8-yl)-2-(methylsulfonyl)octahydrocyclopenta[c]pyrrol-5-ol]	1000 to 5000	≤ 500
O[C@@H]1C[C@@H]2C[C@@](O)(c3cc(Cl)cc4cn[nH]c34)C[C@@H]2C1 [Example 106, (2r,3aR,5s,6aS)-2-(5-chloro-1H-indazol-7-yl)octahydropentalene-2,5-diol]	> 5000	500 to 1000
CC(=O)N1C[C@@H]2CN(c3cc(Cl)cn4cncc34)C[C@@H]2C1(C)C (racemic) [Example 41, Racemic-1-((3aS,6aR)-5-(6-chloroimidazo[1,5-a]pyridin-8-yl)-1,1-dimethylhexahydropyrrolo[3,4-c]pyrrol-2(1H)-yl)ethanone]	> 5000	1000 to 5000
CC(=O)N1C[C@@H]2CN(c3c(C4CC4)ccc4cncn34)C[C@@H]2C1(C)C (racemic) [Example 56, Racemic-1-((3aS,6aR)-5-(6-cyclopropylimidazo[1,5-a]pyridin-5-yl)-1,1-dimethylhexahydropyrrolo[3,4-c]pyrrol-2(1H)-yl)ethanone]	> 5000	> 5000
O[C@@]1(c2cc(Cl)cc3cn[nH]c23)C[C@H]2C[C@H]2C1 [Example 118, (1R,3r,5S)-3-(5-chloro-1H-indazol-7-yl)bicyclo[3.1.0]hexan-3-ol]	> 5000	1000 to 5000
CC(=O)N1C[C@@H]2C[C@@](O)(c3cc(Cl)cn4cncc34)C[C@@H]2C1 [Example 6, 1-((3aR,5r,6aS)-5-(6-chloroimidazo[1,5-a]pyridin-8-yl)-5-hydroxyhexahydrocyclopenta[c]pyrrol-2(1H)-yl)ethanone]	> 5000	500 to 1000
O=S(=O)(c1ccccc1)N1C[C@@H]2C[C@@](O)(c3cc(Cl)cc4[nH]ncc34)C[C@@H]2C1 [Example 35, (3aR,5r,6aS)-5-(6-chloro-1H-indazol-4-yl)-2-(phenylsulfonyl)octahydrocyclopenta[c]pyrrol-5-ol]	> 5000	≤ 500
O=C(N[C@H]1[C@@H]2C[C@@](O)(c3cc(Cl)cc4[nH]ncc34)C[C@@H]21)c1cccc(F)c1 [Example 143, N-((1R,3r,5S,6r)-3-(6-chloro-1H-indazol-4-yl)-3-hydroxybicyclo[3.1.0]hexan-6-yl)-3-fluorobenzamide]	≤ 500	≤ 500
O=S(=O)(C1CC1)N1C[C@@H]2C[C@@](O)(c3cc(Cl)cc4cn[nH]c34)C[C@@H]2C1 [Example 100, (3aR,5r,6aS)-5-(5-chloro-1H-indazol-7-yl)-2-(cyclopropylsulfonyl)octahydrocyclopenta[c]pyrrol-5-ol]	> 5000	1000 to 5000
O=C(Nc1ccc(Cl)cc1)N1C[C@@H]2C[C@@](O)(c3cc(Cl)cc4[nH]ncc34)C[C@@H]2C1 [Example 165, (3aR,5r,6aS)-5-(6-chloro-1H-indazol-4-yl)-N-(4-chlorophenyl)-5-hydroxyhexahydrocyclopenta[c]pyrrole-2(1H)-carboxamide]	1000 to 5000	≤ 500
O=C(N[C@H]1[C@@H]2C[C@@](O)(c3cc(Cl)cc4[nH]ncc34)C[C@@H]21)c1cccc(Cl)c1 [Example 124, 3-chloro-N-((1R,3r,5S,6r)-3-(6-chloro-1H-indazol-4-yl)-3-hydroxybicyclo[3.1.0]hexan-6-yl)benzamide]	≤ 500	≤ 500
O=S(=O)(c1ccccc1)N1C[C@@H]2C[C@@](O)(c3cc(Cl)cc4cn[nH]c34)C[C@@H]2C1 [Example 102, (3aR,5r,6aS)-5-(5-chloro-1H-indazol-7-yl)-2-(phenylsulfonyl)octahydrocyclopenta[c]pyrrol-5-ol]	> 5000	> 5000
CC1(C)[C@H]2CN(c3cc(C(F)(F)F)cc4cncn34)C[C@H]2CN1S(C)(=O)=O (racemic) [Example 50, Racemic-5-((3aR,6aS)-4,4-dimethyl-5-(methylsulfonyl)hexahydropyrrolo[3,4-c]pyrrol-2(1H)-yl)-7-(trifluoromethyl)imidazo[1,5-a]pyridine]	> 5000	> 5000
O=C(N[C@H]1[C@@H]2C[C@@](O)(c3cc(Cl)cc4[nH]ncc34)C[C@@H]21)c1cccc(Br)c1 [Example 146, 3-bromo-N-((1R,3r,5S,6r)-3-(6-chloro-1H-indazol-4-yl)-3-hydroxybicyclo[3.1.0]hexan-6-yl)benzamide]	≤ 500	≤ 500
CS(=O)(=O)N[C@H]1C[C@@H]2C[C@@](O)(c3cc(Cl)cc4[nH]ncc34)C[C@@H]2C1 [Example 3, N-((2r,3aR,5r,6aS)-5-(6-chloro-1H-indazol-4-yl)-5-hydroxyoctahydropentalen-2-yl)methanesulfonamide]	> 5000	≤ 500
CC(=O)N1C[C@@H]2CN(c3cc(C(F)(F)F)cn4cncc34)C[C@@H]2C1(C)C (racemic) [Example 45, Racemic-1-((3aS,6aR)-1,1-dimethyl-5-(6-(trifluoromethyl)imidazo[1,5-a]pyridin-8-yl)hexahydropyrrolo[3,4-c]pyrrol-2(1H)-yl)ethanone]	> 5000	1000 to 5000
CC(=O)N[C@H]1[C@@H]2C[C@@](O)(c3cc(C(F)(F)F)cc4[nH]ncc34)C[C@@H]21 [Example 164, N-((1R,3r,5S,6r)-3-hydroxy-3-(6-(trifluoromethyl)-1H-indazol-4-yl)bicyclo[3.1.0]hexan-6-yl)acetamide]	> 5000	≤ 500
